74 molecules from ChEMBL document CHEMBL3507680, “University of Dundee, Gates Library screen for HepG2 cell viability” can be followed below.

A short description of the data set: Human HepG2 cell viability assay in 384 well format. The class given is toxicity, cell-based. Also noted: dose 125 nL, time 70.5 hour; cytotoxicity at 70.5 h: concentration not given beside the values. To be noted: HepG2 cells, read-out: Inhibition.

Molecules are shown by their SMILES.

Turning to `Cc1cc(C(=O)N2CCN(C(=O)CCC3CCCCC3)CC2)n(C)n1`, the cytotoxicity at 70.5 h was -18.7%.

Consider `O=C(CS(=O)(=O)Cc1ccc(Br)cc1F)Nc1cn[nH]c1`, for which the cytotoxicity at 70.5 h is 4.02%.

`Cc1ccc(F)cc1S(=O)(=O)NCc1cccc(CS(C)(=O)=O)c1`: the cytotoxicity at 70.5 h was -6.95%.

Consider `O=C(Cn1cccn1)NCC1CCCN(Cc2ccccc2)C1` (centres undefined), for which the cytotoxicity at 70.5 h was -20.2%.

For `CCNC(=O)C(C)NC(=O)Nc1ccccc1Cl` (centres undefined), the cytotoxicity at 70.5 h was -6.58%.

For the molecule `CS(=O)(=O)NC1CCN(C(=O)c2cc3ccccc3s2)C1` (centres undefined), the cytotoxicity at 70.5 h is -22.9%.

`CCOC(=O)CN(CC(F)(F)F)C(=O)c1nc(C)n2ccccc12`: the cytotoxicity at 70.5 h was -15.3%.

Take `Cn1c(CCNC(=O)Nc2cn[nH]c2)nc2ccc(F)cc21`: the cytotoxicity at 70.5 h was -1.73%.

Turning to `CC(C)n1nccc1NC(=O)NCCc1nc2ccc(F)cc2n1C`, the cytotoxicity at 70.5 h was -11%.

As to `Cc1ccc(C(=O)NCC(O)c2ccc(Cl)s2)c(=O)[nH]1` (centres undefined), the cytotoxicity at 70.5 h is -23.1%.

In the case of `Cc1cc(C(=O)NCC(O)c2ccc(Cl)s2)c(C)o1` (centres undefined), the cytotoxicity at 70.5 h is -10.3%.

For the molecule `O=c1[nH]c(C2CCOC2)nc2ccc(Br)cc12` (centres undefined), the cytotoxicity at 70.5 h was -2.39%.

In the case of `O=S(=O)(N1CCN(CC2CC2)CC1)N1CCCC1c1ccco1` (centres undefined), the cytotoxicity at 70.5 h is -5.9%.

Regarding `Cc1nc(CN2CCOC(c3ccc(Cl)cc3)C2)oc1C` (centres undefined), the cytotoxicity at 70.5 h is -7.95%.

Consider `Cc1nc(CN2CCCC2Cn2ccnc2C(C)C)nc2ccccc12` (centres undefined), for which the cytotoxicity at 70.5 h was 19.9%.

As for `Cc1cc(C2CCCN(Cc3cccnc3)C2)n[nH]1` (centres undefined), the cytotoxicity at 70.5 h came out at 47.5%.

As for `CS(=O)(=O)NC1CCN(Cc2coc(-c3ccc(Cl)cc3)n2)CC1`, the cytotoxicity at 70.5 h is 7.7%.

Regarding `CN(Cc1ccsc1)C(=O)c1nc(N2CCCC2)ncc1Cl`, the cytotoxicity at 70.5 h is -6.35%.

Consider `O=C(c1nc(N2CCCC2)ncc1Cl)N1CCN(Cc2ccsc2)CC1`, for which the cytotoxicity at 70.5 h worked out at 29%.

With `CC(C)CN1CCC(NC(=O)N(C)Cc2csc3ccccc23)CC1`, the cytotoxicity at 70.5 h was -3.08%.

As to `Cc1cc(C)n(C2CN(c3nc(-c4ccncc4)nc4c3CCC4)C2)n1`, the cytotoxicity at 70.5 h is -8.99%.

On to `O=C(Nc1ccccc1F)NC1(CO)CCOCC1`, for which the cytotoxicity at 70.5 h was -12.1%.

As to `CNC(=O)Cc1ccccc1NC(=O)N[C@H]1c2ccccc2C[C@H]1O`, the cytotoxicity at 70.5 h is -13.7%.

`CC(C)Oc1ccccc1CNC(=O)N(C)C(C)CS(C)(=O)=O` (centres undefined): the cytotoxicity at 70.5 h is 16.1%.

As for `N#Cc1ccc(NCc2cccnc2N2CCC(C(N)=O)CC2)cn1`, the cytotoxicity at 70.5 h is -7.33%.

For `COc1ccccc1CCNC(=O)N(C)C(C)CS(C)(=O)=O` (centres undefined), the cytotoxicity at 70.5 h came out at 24.3%.

`CN(C)C(=O)c1ccccc1NC(=O)N[C@@H]1c2ccccc2C[C@@H]1O`: the cytotoxicity at 70.5 h is 0.722%.

Consider `O=C(c1cc(C2CC2)nc2onc(-c3ccccc3)c12)N1CC[C@H](O)C1`, for which the cytotoxicity at 70.5 h is -4.91%.

`O=C(c1cc(C2CC2)nc2onc(-c3ccccc3)c12)N1CC(O)C1`: the cytotoxicity at 70.5 h was 16.9%.

As for `CC(C)(C)OC(=O)N[C@H]1CCN(c2cncc(Br)c2)C1`, the cytotoxicity at 70.5 h is 23.7%.

Take `Cc1c(Br)cccc1CSc1nnc(CO)n1C`: the cytotoxicity at 70.5 h was found to be 14%.

As for `COC(=O)C(NC(=O)c1cc(C)ccc1C)c1cccnc1` (centres undefined), the cytotoxicity at 70.5 h is -0.114%.

On to `COC(=O)C(NC(=O)c1cc(F)cc(F)c1)c1cccnc1` (centres undefined), for which the cytotoxicity at 70.5 h was -8.87%.

Regarding `CCC(C)C(=O)N(Cc1ccccn1)C1CC1` (centres undefined), the cytotoxicity at 70.5 h stood at 25.9%.

`O=C(C1CCCN(c2nc3ccccc3cc2CO)C1)N1CCCC1` (centres undefined): the cytotoxicity at 70.5 h amounted to 20.7%.

For `Cc1ccc(CNC(CCO)C2CCCCC2)nc1` (centres undefined), the cytotoxicity at 70.5 h is -1.61%.

With `Cc1ncccc1CNC(CCO)C1CCCCC1` (centres undefined), the cytotoxicity at 70.5 h was 1.16%.

Take `O=C(CNC1(CCO)CCOCC1)Nc1ccc(F)cc1F`: the cytotoxicity at 70.5 h was found to be 10.9%.

On to `Cc1nc(CN2CCCCC2Cn2cccn2)nc2ccccc12` (centres undefined), for which the cytotoxicity at 70.5 h is -5.42%.

Consider `Cn1nc(C(=O)NCCc2ccc(OC3CCCC3)cc2)ccc1=O`, for which the cytotoxicity at 70.5 h amounted to 12.1%.

Turning to `COc1ccc(COCC(=O)N2CCC(c3nncn3C)CC2)cc1`, the cytotoxicity at 70.5 h was -12.3%.

As for `CCc1nnc2n1CCN(C(=O)CCc1ccc(C)c(Cl)c1)C2`, the cytotoxicity at 70.5 h was -1.97%.

Turning to `N#Cc1ccc(N2CCC(OCCc3ccccc3)CC2)nc1`, the cytotoxicity at 70.5 h is -13.8%.

As for `COC(=O)COc1nc(C(C)C)no1`, the cytotoxicity at 70.5 h was -10.1%.

Consider `CN(C1CCN(C(=O)NCCc2ccc(F)cc2F)CC1)S(C)(=O)=O`, for which the cytotoxicity at 70.5 h is -5.3%.

On to `COc1ccc(C(=O)CCC(=O)NCc2c(C)noc2C)cc1F`, for which the cytotoxicity at 70.5 h is 23.7%.

Consider `COc1ccc(CNCC2CN(C3CC3)CCO2)cc1OC` (centres undefined), for which the cytotoxicity at 70.5 h is -7.17%.

As for `Cn1cnnc1C1CCN(C(=O)COCc2ccccc2Cl)CC1`, the cytotoxicity at 70.5 h was -11.8%.

In the case of `CCc1n[nH]c(C2CN(C(=O)CCOCC(F)(F)F)CCO2)n1` (centres undefined), the cytotoxicity at 70.5 h is -12.9%.

Take `O=C(CN1CC(n2cccn2)C1)NCC1(c2ccccc2)CCC1`: the cytotoxicity at 70.5 h is 13.6%.

As to `c1ncn(CCNC2CCCN(Cc3noc(C4CC4)n3)C2)n1` (centres undefined), the cytotoxicity at 70.5 h was -11.2%.

With `CC(NC(=O)Nc1ccncc1)c1ccc2c(c1)CC(=O)N2` (centres undefined), the cytotoxicity at 70.5 h is -7.01%.

Regarding `O=C(NCCCN1CCN(c2ncccn2)CC1)Nc1ccccn1`, the cytotoxicity at 70.5 h is -2.48%.

In the case of `NC(=O)CC1CCN(C(=O)c2cnc(-c3ccccc3F)s2)CC1`, the cytotoxicity at 70.5 h is -22.8%.

As for `Cc1cc(N2CCc3c(nc(C(C)C)n3C)C2)nc(N)n1`, the cytotoxicity at 70.5 h is -10.6%.

In the case of `N#CCCN(Cc1cccnc1)C(=O)c1ccc(OCC2CC2)cc1`, the cytotoxicity at 70.5 h was -4.18%.

Regarding `OC(CN1CCN(CC(F)F)CC1)c1ccc(Br)cc1` (centres undefined), the cytotoxicity at 70.5 h was 1.14%.

Take `OC(CN1CCN(CC2CCCCC2)CC1)c1ccccc1` (centres undefined): the cytotoxicity at 70.5 h was -8.48%.

With `COc1cccc(NC(=O)NC(C)c2ccc3c(c2)CC(=O)N3)c1` (centres undefined), the cytotoxicity at 70.5 h is -3.09%.

For the molecule `Cn1ccnc1CNC(=O)Nc1ccc(OC2CCC2)c(F)c1`, the cytotoxicity at 70.5 h turned out to be 20%.

Turning to `O=C(Cc1ccon1)NC1CC2(CCC2)Oc2ccccc21` (centres undefined), the cytotoxicity at 70.5 h amounted to 4.31%.

Consider `CC(=O)NCCCOc1c(C)cccc1Cl`, for which the cytotoxicity at 70.5 h is -2.28%.

As to `CC(=O)NCCOc1c(C)cccc1C`, the cytotoxicity at 70.5 h was -4.39%.

On to `O=C(CN1CCN(CCO)CC1)NCCc1c(F)cccc1F`, for which the cytotoxicity at 70.5 h is -1.38%.

As to `Cc1cccc(CCC(=O)NCC2CCCN2c2cccnn2)c1` (centres undefined), the cytotoxicity at 70.5 h amounted to 5.29%.

Take `O=C(CNCC1CCCN1c1cccnn1)NCCc1cccs1` (centres undefined): the cytotoxicity at 70.5 h is -1.9%.

`Cc1ccccc1CN1CCCN(CCN2CCOC2=O)CC1`: the cytotoxicity at 70.5 h was -1.61%.

As for `CN(CCCNC(=O)CN1CCS(=O)(=O)CC1)c1ccccc1`, the cytotoxicity at 70.5 h is -6.59%.

Take `CCC(C)NC(=O)c1ccc(CNC(=O)CCC(C)C)cc1` (centres undefined): the cytotoxicity at 70.5 h turned out to be 15.4%.

Consider `CC1CCCCN1Cc1nc(C2CC2)no1` (centres undefined), for which the cytotoxicity at 70.5 h is -4.41%.

As to `CN(Cc1ccccc1OC(F)(F)F)C(=O)C1CCCN(C(N)=O)C1` (centres undefined), the cytotoxicity at 70.5 h is -6.37%.

Regarding `COCCN(C)C(=O)Nc1ccc(C(=O)NCCC(=O)OC)cc1`, the cytotoxicity at 70.5 h is -8.51%.

As to `CCCN(C)C(=O)Nc1ccc(C(=O)NCCC(=O)OC)cc1`, the cytotoxicity at 70.5 h was -6.01%.

As to `COc1cc(CNCC2CN(C3CC3)CCO2)cc(OC)c1` (centres undefined), the cytotoxicity at 70.5 h was -2.94%.
